# Source: ChEMBL document CHEMBL4396870, “Pharmacological Chaperones for the Treatment of α-Mannosidosis” (J Med Chem, 2019)
# Substitutions are numbered along the chain they refer to.
# Assays:
# [1] = target: T1, Lysosomal alpha-mannosidase (Homo sapiens) (UniProt O00754); experiment: Chaperone activity at Lysosomal alpha-mannosidase in wild-type human fibroblasts assessed as increase in Lysosomal alpha-mannosidase activity at 0.2 uM using 4-methylumbelliferone alpha-D-mannopyranoside as a reporter substrate incubated for 4 days by fluorescence method relative to control
# T1 sequence (whole entry): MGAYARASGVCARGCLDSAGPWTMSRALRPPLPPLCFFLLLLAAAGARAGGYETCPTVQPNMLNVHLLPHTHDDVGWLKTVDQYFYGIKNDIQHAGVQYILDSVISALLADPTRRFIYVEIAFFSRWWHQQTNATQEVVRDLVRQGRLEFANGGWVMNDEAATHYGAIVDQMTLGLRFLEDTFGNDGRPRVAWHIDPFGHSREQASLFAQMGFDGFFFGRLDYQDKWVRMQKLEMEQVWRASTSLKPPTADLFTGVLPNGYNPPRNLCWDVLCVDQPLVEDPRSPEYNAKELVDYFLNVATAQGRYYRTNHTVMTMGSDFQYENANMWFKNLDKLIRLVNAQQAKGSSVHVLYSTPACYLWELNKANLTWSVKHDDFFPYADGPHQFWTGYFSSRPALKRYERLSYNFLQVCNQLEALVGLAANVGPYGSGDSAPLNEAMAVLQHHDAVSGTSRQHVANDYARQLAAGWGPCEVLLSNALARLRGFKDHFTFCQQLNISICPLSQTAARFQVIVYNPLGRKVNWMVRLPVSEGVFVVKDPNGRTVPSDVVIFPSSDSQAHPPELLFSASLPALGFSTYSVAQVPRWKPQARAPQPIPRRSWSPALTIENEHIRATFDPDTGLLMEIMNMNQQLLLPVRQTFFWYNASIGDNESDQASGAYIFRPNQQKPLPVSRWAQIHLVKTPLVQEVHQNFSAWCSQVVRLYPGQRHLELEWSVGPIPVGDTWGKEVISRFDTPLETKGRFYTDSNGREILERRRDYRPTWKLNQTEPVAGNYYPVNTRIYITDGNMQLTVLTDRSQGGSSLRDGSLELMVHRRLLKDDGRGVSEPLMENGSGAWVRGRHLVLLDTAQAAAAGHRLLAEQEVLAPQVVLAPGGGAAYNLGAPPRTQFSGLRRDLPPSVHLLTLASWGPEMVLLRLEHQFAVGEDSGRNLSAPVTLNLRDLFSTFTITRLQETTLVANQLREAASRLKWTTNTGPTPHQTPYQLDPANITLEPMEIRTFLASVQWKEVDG
# [2] = tested on: T2, Lysosomal alpha-mannosidase (Homo sapiens), O00754 [L565P]; experiment: Chaperone activity at human Lysosomal alpha-mannosidase L565P mutant transfected in human […] knockout HAP1 cells assessed as enzyme activity enhancement at 0.2 uM incubated for 96 hrs relative to control
# T2 sequence (whole entry): T1 sequence (whole entry) with L565P
# [3] = tested on: T2, Lysosomal alpha-mannosidase (Homo sapiens), O00754 [L565P]; experiment: Chaperone activity at human Lysosomal alpha-mannosidase L565P mutant transfected in human […] knockout HAP1 cells assessed as enzyme activity enhancement at 20 uM incubated for 96 hrs relative to control
Compound,fold change (FC) [1],Activity [2],Activity [3]
COC[C@H]1O[C@@H]2O[C@H]3[C@H](OC)[C@@H](OC)[C@@H](O[C@H]4[C@H](OC)[C@@H](OC)[C@@H](O[C@H]5[C@H](OC)[C@@H](OC)[C@@H](O[C@H]6[C@H](OC)[C@@H](OC)[C@@H](O[C@H]7[C@H](OC)[C@@H](OC)[C@@H](O[C@H]8[C@H](OC)[C@@H](OC)[C@@H](O[C@H]1[C@H](OC)[C@H]2OC)O[C@@H]8COC)O[C@@H]7COC)O[C@@H]6COC)O[C@@H]5COCc1cn(CCCCCCN[C@@H]2[C@@H](O)[C@@H](O)[C@H](O)[C@H]5COC(=O)N52)nn1)O[C@@H]4COC)O[C@@H]3COC,2,0%,0%
CCCc1cn(CCCCCCN[C@@H]2[C@@H](O)[C@@H](O)[C@H](O)[C@H]3COC(=O)N32)nn1,2,–,–
CC(C)(C)OC(=O)NCCCCCCCCCN[C@@H]1[C@@H](O)[C@@H](O)[C@H](O)[C@H]2COC(=O)N21,–,12%,5%
